This note sets out measurements from patent US9884832B2 (priority 2011, dated 2018).

The target in the first assay is AM2 S31 (wild-type serine at position 31 in the M2 protein), influenza virus A/Udorn/72 (Influenza A virus, UniProt P0DOF5). Put plainly: cell-based. The conditions noted are these: 100 uM; Xenopus oocytes; activity range class; read-out: S31 OOcyte Inhibition at 100 uM (%).
Chain of AM2 S31 (wild-type serine at position 31 in the M2 protein), influenza virus A/Udorn/72 (P0DOF5 whole entry, looked up): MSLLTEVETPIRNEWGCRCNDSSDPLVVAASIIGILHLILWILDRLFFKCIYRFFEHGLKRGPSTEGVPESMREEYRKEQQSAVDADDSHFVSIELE
As for `c1ccc(-c2nc(CNC34CC5CC(CC(C5)C3)C4)no2)cc1` [Example 131a, N-((5-phenyl-1,2,4-oxadiazol-3-yl)methyl)adamantan-1-amine], the inhibition at 100 µM was in the range of 0 to 30%.

Consider `c1csc(-c2ncc(CNC34CC5CC(CC(C5)C3)C4)s2)c1` [Example 144a, N-((2-(thiophen-2-yl)thiazol-5-yl)methyl)adamantan-1-amine], for which the inhibition at 100 µM was 0 to 30%.

Regarding `CC(C)n1cc(CNC23CC4CC(CC(C4)C2)C3)cn1` [Example 85a, N-((1-isopropyl-1H-pyrazol-4-yl)methyl)adamantan-1-amine], the inhibition at 100 µM was 0 to 30%.

Regarding `CC(NC12CC3CC(CC(C3)C1)C2)c1ccc(C#N)s1` (stereo not shown) [Example 92a, 5-(1-(adamantan-1-ylamino)ethyl)thiophene-2-carbonitrile], the inhibition at 100 µM is 31 to 95%.

In the case of `Cc1csc2sc(CNC34CC5CC(CC(C5)C3)C4)c(C)c12` [Example 176a], the inhibition at 100 µM lay in the range of 0 to 30%.

As to `Cc1ccc(-c2cc(CNC34CC5CC(CC(C5)C3)C4)no2)cc1` [Example 120a, N-((5-(p-tolyl)isoxazol-3-yl)methyl)adamantan-1-amine], the inhibition at 100 µM is 0 to 30%.

In the case of `c1cn(-c2ccc(CNC34CC5CC(CC(C5)C3)C4)s2)cn1` [Example 161a, N-((5-(1H-imidazol-1-yl)thiophen-2-yl)methyl)adamantan-1-amine], the inhibition at 100 µM is 0 to 30%.

For the molecule `Cc1ccc(CNC23CC4CC(CC(C4)C2)C3)cc1` [Example 8a, N-(4-Methylbenzyl)adamantan-1-amine], the inhibition at 100 µM fell in the range of 31 to 95%.

In the case of `COc1ccccc1COc1ccc(CNC23CC4CC(CC(C4)C2)C3)cc1` [Example 15a, Adamantan-1-yl-[4-(2-methoxy-benzyloxy)-benzyl]-amine], the inhibition at 100 µM fell in the range of 0 to 30%.

As for `OC12CC3CC(C1)CC(NCc1cc4sccc4s1)(C3)C2` [Example 192a, 3-[(Thieno[3,2-b]thiophen-2-ylmethyl)-amino]-adamantan-1-ol], the inhibition at 100 µM was in the range of 0 to 30%.

For the molecule `c1coc(-c2ccc(CNC34CC5CC(CC(C5)C3)C4)cc2)c1` [Example 31a, N-(4-(Furan-2-yl)benzyl)adamantan-1-amine], the inhibition at 100 µM is 0 to 30%.

For `c1csc(-c2ccc(CNC3C4CC5CC(C4)CC3C5)s2)c1` (stereo not shown) [Example 205a, N-([2,2′-bithiophen]-5-ylmethyl)adamantan-2-amine], the inhibition at 100 µM fell in the range of 0 to 30%.

With `CC(C)(C)c1cc(CNC23CC4CC(CC(C4)C2)C3)[nH]n1` [Example 101a, N-((3-(tert-butyl)-1H-pyrazol-5-yl)methyl)adamantan-1-amine], the inhibition at 100 µM was in the range of 0 to 30%.

Turning to `Cc1ccc(-c2ccc(CNC34CC5CC(CC(C5)C3)C4)cc2)o1.Cl` [Example 32a, N-(4-(5-Methylfuran-2-yl)benzyl)adamantan-1-amine hydrochloride], the inhibition at 100 µM fell in the range of 0 to 30%.

With `Oc1cc(-c2cccs2)ccc1CNC12CC3CC(CC(C3)C1)C2` [Example 49a], the inhibition at 100 µM lay in the range of 0 to 30%.

For `FC(F)(F)c1ccc(-c2nc(CNC34CC5CC(CC(C5)C3)C4)no2)cc1` [Example 129a, N-((5-(4-(trifluoromethyl)phenyl)-1,2,4-oxadiazol-3-yl)methyl)adamantan-1-amine], the inhibition at 100 µM lay within 0 to 30%.

`Ic1ccc(CNC23CC4CC(CC(C4)C2)C3)s1` [Example 91a, N-((5-Iodothiophen-2-yl)methyl)adamantan-1-amine]: the inhibition at 100 µM fell in the range of 31 to 95%.

As to `FC(F)(F)Oc1ccc(CNC23CC4CC(CC(C4)C2)C3)cc1` [Example 4a, Adamantan-1-yl-(4-trifluoromethoxy-benzyl)-amine], the inhibition at 100 µM is 0 to 30%.

Turning to `c1cc(-c2nc(CNC34CC5CC(CC(C5)C3)C4)no2)cs1` [Example 143a, N-((5-(thiophen-3-yl)-1,2,4-oxadiazol-3-yl)methyl)adamantan-1-amine], the inhibition at 100 µM fell in the range of 0 to 30%.

In the case of `c1ccc(-c2ncc(CNC34CC5CC(CC(C5)C3)C4)cn2)cc1` [Example 63a, N-((2-phenylpyrimidin-5-yl)methyl)adamantan-1-amine], the inhibition at 100 µM was in the range of 0 to 30%.

As for `COc1ccc(-c2ccc(CNC34CC5CC(CC(C5)C3)C4)s2)cc1` [Example 113a, N-((5-(4-methoxyphenyl)thiophen-2-yl)methyl)adamantan-1-amine], the inhibition at 100 µM is 0 to 30%.

As to `Cn1c(CNC23CC4CC(CC(C4)C2)C3)nc2ccccc21` [Example 180a, Adamantan-1-yl-(1-methyl-1H-benzoimidazol-2-ylmethyl)-amine], the inhibition at 100 µM was 0 to 30%.

The same assay, now with this note: 100 uM; Xenopus oocytes; numeric value; read-out: S31 OOcyte Inhibition at 100 uM (%).
For the molecule `c1cn(-c2ccc(CNC34CC5CC(CC(C5)C3)C4)cc2)cn1` [Example 36a, N-(4-(1H-imidazol-1-yl)benzyl)adamantan-1-amine], the inhibition at 100 µM came out at 16.1%.

The same assay, now with this note: Table 1; 100 uM; Xenopus oocytes, pH 5.5, -20 mV; read-out: S31 OOcyte Inhibition at 100 uM (%).
Regarding `c1c(CNC2C3CC4CC(C3)CC2C4)nc2n1CCS2` (stereo not shown) [Example 105, Adamantan-2-yl-(2,3-dihydro-imidazo[2,1-b]thiazol-6-ylmethyl)-amine], the inhibition at 100 µM lay in the range of 31 to 95%.

In the case of `CC(=O)Oc1ccc(CNC23CC4CC(CC(C4)C2)C3)c(O)c1` [Example 60, Acetic acid 4-(adamantan-1-ylaminomethyl)-3-hydroxy-phenyl ester], the inhibition at 100 µM lay in the range of 31 to 95%.

For the molecule `CC1(C)C2CCC(CNCc3ccc(O)cc3O)C1C2` (stereo not shown) [Example 114, 4-{[(6,6-Dimethyl-bicyclo[3.1.1]hept-2-ylmethyl)-amino]methyl}-benzene-1,3-diol], the inhibition at 100 µM is 31 to 95%.

With `O=[N+]([O-])c1cc(CNC23CC4CC(CC(C4)C2)C3)ccc1O` [Example 52, 4-(Adamantan-1-ylaminomethyl)-2-nitro-phenol], the inhibition at 100 µM lay within 31 to 95%.

On to `c1cnc2sc(CNC34CC5CC(CC(C5)C3)C4)cc2c1` [Example 90, Adamantan-1-yl-thieno[2,3-b]pyridin-2-ylmethyl-amine], for which the inhibition at 100 µM fell in the range of 0 to 30%.

Regarding `Nc1ncc(CNC23CC4CC(CC(C4)C2)C3)cn1` [Example 75, 5-(Adamantan-1-ylaminomethyl)-pyrimidin-2-ylamine], the inhibition at 100 µM is 31 to 95%.

With `c1ccc(CNC23CC4CC(CC(C4)C2)C3)nc1` [Example 72, Adamantan-1-yl-pyridin-2-ylmethyl-amine], the inhibition at 100 µM is 0 to 30%.

As for `OCC(Cc1cnc[nH]1)NCC12CC3CC(CC(C3)C1)C2` (stereo not shown) [Example 2, 2-[(adamantan-1-ylmethyl)-amino]-3-(3H-imidazol-4-yl)-propan-1-ol], the inhibition at 100 µM lay within 0 to 30%.

In the case of `Oc1cccc(CNC23CC4CC(CC(C4)C2)C3)c1` [Example 31, 3-(Adamantan-1-ylaminomethyl)-phenol], the inhibition at 100 µM is 31 to 95%.

Regarding `Cc1nn2cc(CNC3C4CC5CC(C4)CC3C5)nc2s1` (stereo not shown) [Example 106, Adamantan-2-yl-(2-methyl-imidazo[2,1-b][1,3,4]thiadiazol-6-ylmethyl)-amine], the inhibition at 100 µM lay in the range of 0 to 30%.

Still in this assay, the particulars now being: Table 3; 100 uM; Xenopus oocytes, pH 5.5, -20 mV; read-out: S31 OOcyte Inhibition at 100 uM (%).
`Cc1csc(CNC23CC4CC(CC(C4)C2)C3)n1` [Example 68b, Adamantan-1-yl-(4-methyl-thiazol-2-ylmethyl)-amine]: the inhibition at 100 µM fell in the range of 31 to 95%.

`CSc1ccccc1-c1cc(CNC23CC4CC(CC(C4)C2)C3)no1` [Example 42b, N-((5-(2-(methylthio)phenyl)isoxazol-3-yl)methyl)adamantan-1-amine]: the inhibition at 100 µM was 0 to 30%.

As for `c1sc(CNC23CC4CC(CC(C4)C2)C3)cc1C1CC1` [Example 48b, N-((4-Cyclopropylthiophen-2-yl)methyl)adamantan-1-amine], the inhibition at 100 µM fell in the range of 0 to 30%.

Take `Fc1cccc(F)c1-c1cc(CNC23CC4CC(CC(C4)C2)C3)no1` [Example 38b, N-((5-(2,6-difluorophenyl)isoxazol-3-yl)methyl)adamantan-1-amine]: the inhibition at 100 µM is 0 to 30%.

Turning to `Clc1ccc(CNC23CC4CC(CC(C4)C2)C3)cc1` [Example 1b, N-(4-Chlorobenzyl)adamantan-1-amine], the inhibition at 100 µM was in the range of 31 to 95%.

On to `CN(C)c1ncc(CNC23CC4CC(CC(C4)C2)C3)cn1` [Example 59b, N-((2-dimethylaminopyrimidin-5-yl)methyl)adamantan-1-amine], for which the inhibition at 100 µM was in the range of 0 to 30%.

Turning to `c1c(CNC23CC4CC(CC(C4)C2)C3)noc1C1CCCCC1` [Example 32b, N-((5-cyclohexylisoxazol-3-yl)methyl)adamantan-1-amine], the inhibition at 100 µM was in the range of 0 to 30%.

On to `COc1cccc(-c2cc(CNC34CC5CC(CC(C5)C3)C4)no2)c1` [Example 39b, N-((5-(3-methoxyphenyl)isoxazol-3-yl)methyl)adamantan-1-amine], for which the inhibition at 100 µM fell in the range of 0 to 30%.

For `COc1ccccc1-c1nc(CNC23CC4CC(CC(C4)C2)C3)no1` [Example 15b, N-((5-(2-methoxyphenyl)-1,2,4-oxadiazol-3-yl)methyl)adamantan-1-amine], the inhibition at 100 µM was 0 to 30%.

As to `CSc1ccc(-c2cc(CNC34CC5CCC(CC(C5)C3)C4)no2)cc1` [Example 91b, (1S,3R,8S)—N-((5-(4-(methylthio)phenyl)isoxazol-3-yl)methyl)tricyclo[4.3.1.13,8]undecan-1-amine], the inhibition at 100 µM lay within 0 to 30%.

As to `COc1ccccc1-c1ccc(CNC23CC4CC(CC(C4)C2)C3)nc1` [Example 69b, Adamantan-1-yl-[5-(2-methoxy-phenyl)-pyridin-2-ylmethyl]-amine], the inhibition at 100 µM lay within 0 to 30%.

With `COc1ccsc1-c1cc(CNC23CC4CC(CC(C4)C2)C3)no1` [Example 44b, N-((5-(3-methoxythiophen-2-yl)isoxazol-3-yl)methyl)adamantan-1-amine], the inhibition at 100 µM lay in the range of 0 to 30%.

Take `Cc1noc(C)c1-c1nc(CNC23CC4CC(CC(C4)C2)C3)no1` [Example 25b, N-((5-(3,5-dimethylisoxazol-4-yl)-1,2,4-oxadiazol-3-yl)methyl)adamantan-1-amine]: the inhibition at 100 µM lay within 0 to 30%.
